Experimental findings from patent US12435061B2 (priority 2020, dated 2025) are described below.

Values after ≈ are worked out from the molar mass of the structure shown. Counter-ions that a name gives are not always drawn. Like-named read-outs stand apart in the source and are kept apart here. Some results are limits rather than exact numbers.

The target of one data set is hTRPV3 (Homo sapiens (Human), UniProt Q8NET8). The data set can be described thus: Whole-cell patch clamp, hTRPV3 Phase 1 / Phase 2 currents. It counts as cell-based. In a few lines:
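Whole-cell recordings on induced TRPV3 cells replated on coverslips, held at −40 mV with 400 ms ramps from −120 to +100 mV every 5 s; currents read at −80 and +80 mV. Ringer's external solution; current activated by heating to ≥28 °C or 20 μM 2-APB.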
For orientation: The patch-clamp technique gives a direct electrical read-out from membranes.

Data set [1] is described as follows: Aqueous solubility assay in Normal Ringer Solution. The conditions noted are these: Normal Ringer Solution; for solubility at 40 min: saline or isotonic, kinetic from dmso stock; for Solubility Ringer (nM): room temperature. How it is done:
Following vortex and incubation for a sufficient time (e.g. 40 minutes at room temperature), solutions were filtered, quenched with acetonitrile, and analyzed by Liquid Chromotography. Solubility Limits were determined by comparison to a standard curve.

Setting [2] is: Phase 1 current, inward, whole-cell patch clamp, read-out: hTRPV3 Patch P1 Inwd.
The mark [3] stands for this setting: Phase 1 current, read-out: hTRPV3 (nM) (Phase 1).
[4] abbreviates: Phase 2 current, inward, whole-cell patch clamp, read-out: hTRPV3 Patch P2 Inwd.
The mark [5] stands for this setting: Phase 2 current, read-out: hTRPV3 (nM) (Phase 2).
[6] abbreviates: read-out: hTRPV3 (nM) (Phase 2).

What is called solubility is how much of the substance goes into solution per volume.

hTRPV3, sequence (Q8NET8 whole entry): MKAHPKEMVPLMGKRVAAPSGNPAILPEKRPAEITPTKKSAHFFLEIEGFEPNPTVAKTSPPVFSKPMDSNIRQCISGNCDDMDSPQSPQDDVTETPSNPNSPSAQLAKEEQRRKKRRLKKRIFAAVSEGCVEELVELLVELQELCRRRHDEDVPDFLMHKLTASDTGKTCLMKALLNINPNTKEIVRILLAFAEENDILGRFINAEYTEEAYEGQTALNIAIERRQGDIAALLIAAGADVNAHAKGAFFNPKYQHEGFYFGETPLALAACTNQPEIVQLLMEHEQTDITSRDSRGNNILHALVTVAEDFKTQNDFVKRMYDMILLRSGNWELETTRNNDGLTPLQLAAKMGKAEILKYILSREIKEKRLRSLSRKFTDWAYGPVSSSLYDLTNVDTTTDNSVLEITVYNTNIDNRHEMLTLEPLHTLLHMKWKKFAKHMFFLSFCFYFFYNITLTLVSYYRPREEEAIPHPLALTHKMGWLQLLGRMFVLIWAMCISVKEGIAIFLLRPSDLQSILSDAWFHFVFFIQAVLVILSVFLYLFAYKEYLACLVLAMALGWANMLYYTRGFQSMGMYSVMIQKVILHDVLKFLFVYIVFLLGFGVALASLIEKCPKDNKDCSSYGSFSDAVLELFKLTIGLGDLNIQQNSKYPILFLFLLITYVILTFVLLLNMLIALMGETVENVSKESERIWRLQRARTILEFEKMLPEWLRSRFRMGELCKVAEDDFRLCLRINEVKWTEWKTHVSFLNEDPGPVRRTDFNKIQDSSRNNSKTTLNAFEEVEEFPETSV

For the compound `CC(O)c1ccccc1-c1ccc(N2CC[C@H](Oc3ccc(C(F)(F)F)cn3)C2)c(CO)c1` (stereo partly drawn) [Compound 1-171, 1-(3′-(hydroxymethyl)-4′-((S)-3-(5-(trifluoromethyl)pyridin-2-yloxy)pyrrolidin-1-yl)biphenyl-2-yl)ethanol], the IC50 at hTRPV3 (setting [2]) was 100 to 1000 nM; on hTRPV3 (setting [3]), 740 nM; on hTRPV3 (setting [4]), 100 to 1000 nM; at hTRPV3 (setting [5]) it was 636 nM. Moreover, in data set [1], the solubility at 40 min was over 5.35 µM.

With `OCc1ccccc1-c1ccc(N2CC[C@H](Oc3ccc(C(F)(F)F)cn3)C2)c(CO)c1` [Compound 1-174, (S)-(4′-(3-(5-(trifluoromethyl)pyridin-2-yloxy)pyrrolidin-1-yl)biphenyl-2,3′-diyl)dimethanol], the IC50 is 100 to 1000 nM on hTRPV3 (setting [2]), over 320 nM on hTRPV3 (setting [3]), over 1000 nM at hTRPV3 (setting [4]) and over 3200 nM at hTRPV3 (setting [5]). The solubility at 40 min in data set [1] is over 0.67 µM.

As to `NCc1cc(-c2ccccc2)ccc1N1CC[C@@H](Oc2ccc(C(F)(F)F)cn2)C1` [Compound 1-109, (R)-(4-(3-(5-(trifluoromethyl)pyridin-2-yloxy)pyrrolidin-1-yl)biphenyl-3-yl)methanamine hydrochloride], the IC50 at hTRPV3 (hTRPV3 Patch P1 Inwd (nM)) was over 1000 nM; on hTRPV3 (hTRPV3 Patch P2 Inwd (nM)), over 1000 nM; at hTRPV3 (read-out: hTRPV3 (nM) (Phase 1)), 1870 nM; at hTRPV3 (setting [6]), 1930 nM. For the same compound, the solubility at 40 min in data set [1] was over 2.95 µM.

Regarding `OCc1cc(-c2ccccc2)ccc1N1CC[C@@H](Oc2ccc(C(F)(F)F)cn2)C1` [Compound 1-110, (R)-(4-(3-(5-(trifluoromethyl)pyridin-2-yloxy)pyrrolidin-1-yl)biphenyl-3-yl)methanol], the IC50 at hTRPV3 (setting [2]) was 100 to 1000 nM; at hTRPV3 (setting [3]), 710 nM; on hTRPV3 (setting [4]), 100 to 1000 nM; at hTRPV3 (setting [5]), 685 nM. The “Solubility Ringer (nM)” value in data set [1] is “BLQ”.

On to `CC(C)(C)OC(=O)N1CCC(c2ccc(N3CC[C@H](Oc4ccc(C(F)(F)F)cn4)C3)c(CO)c2)CC1` [Compound 1-273, (S)-tert-butyl 4-(3-(hydroxymethyl)-4-(3-(5-(trifluoromethyl)pyridin-2-yloxy)pyrrolidin-1-yl)phenyl)piperidine-1-carboxylate], for which the figures for the IC50 on hTRPV3 (setting [2]) and on hTRPV3 (setting [3]) were over 1000 nM and over 3200 nM, respectively. For the same compound, in data set [1], the “Solubility Ringer (nM)” value is “BLQ”.

For the compound `Cl.NC(=O)c1cc(-c2cccnc2)ccc1N1CC[C@@H](Oc2ncccc2Cl)C1` [Compound 1-74, (R)-2-(3-(3-chloropyridin-2-yloxy)pyrrolidin-1-yl)-5-(pyridin-3-yl)benzamide hydrochloride], the values for the IC50 against hTRPV3 (hTRPV3 Patch P2 Inwd (nM)) and at hTRPV3 (setting [6]) were over 1000 nM and about 5040 nM, respectively. In data set [1], this compound registered a solubility at 40 min of over 13.5 µM.

Consider `OCc1cc(Oc2cccc(Cl)c2)ccc1N1CC[C@H](Oc2ncccc2Cl)C1` [Compound 1-248, (S)-(5-(3-chlorophenoxy)-2-(3-(3-chloropyridin-2-yloxy)pyrrolidin-1-yl)phenyl)methanol], for which the IC50 at hTRPV3 (setting [2]) was 10 to 100 nM; on hTRPV3 (setting [3]), 12.3 nM. Also, the “Solubility Ringer (nM)” value in data set [1] is “BLQ”.

`N#Cc1ccccc1-c1ccc(N2CC[C@H](Oc3ccc(C(F)(F)F)cn3)C2)c(CO)c1` [Compound 1-155]: on hTRPV3 (setting [2]), the IC50 lay in the range of 100 to 1000 nM. Moreover, in data set [1], the “Solubility Ringer (nM)” value is given as “BLQ”.

On to `NC(=O)c1cc(-c2ccccc2)ccc1N1CC[C@@H](Oc2ncccc2Cl)C1` [Compound 1-75, (R)-4-(3-(3-chloropyridin-2-yloxy)pyrrolidin-1-yl)biphenyl-3-carboxamide], for which the IC50 at hTRPV3 (setting [2]) is over 1000 nM; at hTRPV3 (setting [3]), about 2300 nM; on hTRPV3 (setting [4]), 100 to 1000 nM; at hTRPV3 (setting [5]) it was 342 nM. Also, the solubility at 40 min in data set [1] amounted to 0.32 µM (≈ 0.126 µg/mL).

In the case of `OCc1cc(-c2ccccc2)ccc1N1CC[C@H](Nc2nc(C(F)(F)F)cs2)C1` [Compound 1-394, (S)-(4-(3-(4-(trifluoromethyl)thiazol-2-ylamino)pyrrolidin-1-yl)biphenyl-3-yl)methanol], the IC50 at hTRPV3 (setting [2]) is 100 to 1000 nM; at hTRPV3 (setting [3]), 616 nM; at hTRPV3 (setting [4]) it was 100 to 1000 nM; on hTRPV3 (setting [5]), 496 nM. For the same compound, the solubility at 40 min in data set [1] amounted to 1.87 µM (≈ 0.784 µg/mL).

For the compound `COc1ccccc1-c1ccc(N2CC[C@H](Oc3ccc(F)cn3)C2)c(CO)n1` [Compound 1-209, (S)-(3-(3-(5-fluoropyridin-2-yloxy)pyrrolidin-1-yl)-6-(2-methoxyphenyl)pyridin-2-yl)methanol], the IC50 at hTRPV3 (setting [2]) is over 1000 nM; at hTRPV3 (setting [3]), 3470 nM. The compound further gave a solubility at 40 min in data set [1] of about 2.3 µM (≈ 0.909 µg/mL).

As for `OCc1cc(Oc2ccccc2)ccc1N1CC[C@H](Nc2ncccc2Cl)C1` [Compound 1-381, (S)-(2-(3-(3-chloropyridin-2-ylamino)pyrrolidin-1-yl)-5-phenoxyphenyl)methanol], the IC50 is 10 to 100 nM at hTRPV3 (setting [2]) and 23.3 nM on hTRPV3 (setting [3]). The solubility at 40 min in data set [1] is over 1.6 µM.

For the compound `N#Cc1cc(-c2ccccc2)ncc1N1CC[C@@H](Oc2ccc(C(F)(F)F)cn2)C1` [Compound 1-94], the “hTRPV3 (nM) (Phase 2)” value at hTRPV3 (Phase 2 current) is reported as “Incomplete Block”. Moreover, the IC50 was about 117 nM at hTRPV3 (Phase 2 current, inward, numeric value printed in cell (flagged), read-out: hTRPV3 Patch P2 Inwd) and about 117 nM on hTRPV3 (setting [5]). For the same compound, the “Solubility Ringer (nM)” value in data set [1] is listed as “BLQ”.

For the compound `NC(=O)c1cc(-c2ccncc2)ccc1N1CC[C@H](Oc2ccc(C(F)(F)F)cn2)C1` [Compound 1-83, (S)-5-(pyridin-4-yl)-2-(3-(5-(trifluoromethyl)pyridin-2-yloxy)pyrrolidin-1-yl)benzamide], the IC50 is over 1000 nM at hTRPV3 (setting [2]), 2840 nM at hTRPV3 (setting [3]), over 1000 nM on hTRPV3 (setting [4]) and 3350 nM on hTRPV3 (setting [5]). In data set [1], this compound displayed a solubility at 40 min of over 3.9 µM.

As for `OCc1cc(-c2ccccc2)ccc1N1CC[C@H](Oc2ccccn2)C1` [Compound 1-274], the IC50 at hTRPV3 (setting [2]) was 100 to 1000 nM; on hTRPV3 (setting [3]), 241 nM. This compound yielded a solubility at 40 min in data set [1] of about 5.5 µM (≈ 1.91 µg/mL).

With `NC(=O)c1cc(-c2ccccn2)ccc1N1CC[C@H](Oc2ccc(C(F)(F)F)cn2)C1` [Compound 1-81, (S)-5-(pyridin-2-yl)-2-(3-(5-(trifluoromethyl)pyridin-2-yloxy)pyrrolidin-1-yl)benzamide], the IC50 was over 1000 nM on hTRPV3 (setting [2]), over 3200 nM on hTRPV3 (setting [3]), over 1000 nM on hTRPV3 (setting [4]) and 2190 nM on hTRPV3 (setting [5]). Besides, the solubility at 40 min in data set [1] is about 1.4 µM (≈ 0.6 µg/mL).

Regarding `CCc1ccccc1C(O)c1ccc(N2CC[C@H](Oc3ncccc3Cl)C2)c(CO)c1` (stereo partly drawn) [Compound 1-257, (4-((S)-3-(3-chloropyridin-2-yloxy)pyrrolidin-1-yl)-3-(hydroxymethyl)phenyl)(2-ethylphenyl)methanol], the IC50 at hTRPV3 (setting [2]) is 100 to 1000 nM; at hTRPV3 (setting [3]) it was 1060 nM; on hTRPV3 (setting [4]), over 1000 nM; at hTRPV3 (setting [5]), 1110 nM. Besides, in data set [1], the solubility at 40 min was over 6.6 µM.

In the case of `OCc1cc([C@H](O)c2ccccc2Cl)ccc1N1CC[C@H](Oc2ncccc2F)C1` [Compound 1-322, (2-chlorophenyl)(4-((S)-3-(3-fluoropyridin-2-yloxy)pyrrolidin-1-yl)-3-(hydroxymethyl)phenyl)methanol], the IC50 on hTRPV3 (setting [2]) is 100 to 1000 nM; on hTRPV3 (setting [3]) it was 794 nM. In data set [1], this compound yielded a solubility at 40 min of over 9.3 µM.

As for `CCc1ccccc1-c1ccc(N2CC[C@H](Oc3ncccc3F)C2)c(CO)n1` [Compound 1-204, (S)-(6-(2-ethylphenyl)-3-(3-(3-fluoropyridin-2-yloxy)pyrrolidin-1-yl)pyridin-2-yl)methanol], the IC50 is over 1000 nM at hTRPV3 (setting [2]) and 2670 nM on hTRPV3 (setting [3]). In data set [1], this compound had a solubility at 40 min of over 1.8 µM.

Regarding `Cc1ccc(O[C@H]2CCN(c3ccc(Oc4ccccc4C)nc3CO)C2)nc1` [Compound 1-203, (S)-(3-(3-(5-methylpyridin-2-yloxy)pyrrolidin-1-yl)-6-(o-tolyloxy)pyridin-2-yl)methanol], the IC50 on hTRPV3 (setting [2]) was over 1000 nM; at hTRPV3 (setting [3]) it was about 5050 nM; at hTRPV3 (setting [4]), over 1000 nM; at hTRPV3 (setting [5]), 3270 nM. This compound also had a solubility at 40 min in data set [1] of about 1.4 µM (≈ 0.548 µg/mL).

Turning to `OCc1cc(-c2ccccc2)ccc1N1CC[C@H](Oc2nc(C(F)(F)F)cs2)C1` [Compound 1-395, (S)-(4-(3-(4-(trifluoromethyl)thiazol-2-yloxy)pyrrolidin-1-yl)biphenyl-3-yl)methanol], the IC50 is over 1000 nM on hTRPV3 (setting [2]), over 3200 nM on hTRPV3 (setting [3]), over 1000 nM at hTRPV3 (setting [4]) and over 3200 nM on hTRPV3 (setting [5]). Moreover, the “Solubility Ringer (nM)” value in data set [1] is on record as “BLQ”.

In the case of `CN(C)C(=O)c1ccccc1-c1ccc(N2CC[C@H](Oc3ccc(C(F)(F)F)cn3)C2)c(CO)c1` [Compound 1-167, (S)-3′-(hydroxymethyl)-N,N-dimethyl-4′-(3-(5-(trifluoromethyl)pyridin-2-yloxy)pyrrolidin-1-yl)biphenyl-2-carboxamide], the IC50 on hTRPV3 (setting [2]) is over 1000 nM; on hTRPV3 (setting [3]), about 1290 nM; on hTRPV3 (setting [4]) it was over 1000 nM; on hTRPV3 (setting [5]), over 3200 nM. In data set [1], this compound displayed a solubility at 40 min of over 12.6 µM.

For `COc1ccccc1-c1ccc(N2CC[C@H](Oc3ccc(C)cn3)C2)c(CO)n1` [Compound 1-191, (S)-(6-(2-methoxyphenyl)-3-(3-(5-methylpyridin-2-yloxy)pyrrolidin-1-yl)pyridin-2-yl)methanol], the IC50 on hTRPV3 (setting [2]) is over 1000 nM; on hTRPV3 (setting [3]), over 3200 nM.

`N#Cc1ccccc1-c1ccc(N2CC[C@H](Oc3ncccc3F)C2)c(CO)n1` [Compound 1-217, (S)-2-(5-(3-(3-fluoropyridin-2-yloxy)pyrrolidin-1-yl)-6-(hydroxymethyl)pyridin-2-yl)benzonitrile]: the results for the IC50 on hTRPV3 (setting [2]) and on hTRPV3 (setting [3]) were over 1000 nM and 3900 nM, respectively.
